Source: the NIST ThermoML archive (doi:10.1021/je100991y)
Numbers after ± are expanded uncertainties.

Assays:
[1] = refractive index (Na D-line) (dimensionless); details: 101.33 kPa, Liquid, Standard Abbe refractometry
[2] = refractive index (Na D-line) (dimensionless); wn = mass fraction of the nth substance listed; details: 95 kPa, Liquid, Standard Abbe refractometry

SMILES: CCOP(=O)([O-])OCC.CCn1cc[n+](C)c1 [1-ethyl-3-methylimidazolium diethyl phosphate]
- refractive index ([1]; 298.2 K): 1.4733 ± 0.0006
- refractive index ([1]; 313.2 K): 1.4691 ± 0.0006

SMILES: CCOS(=O)(=O)[O-].CCn1cc[n+](C)c1 [1-ethyl-3-methylimidazolium ethyl sulfate]
- refractive index ([1]; 298.2 K): 1.4789 ± 0.0011
- refractive index ([1]; 313.2 K): 1.4745 ± 0.0011

SMILES: Cc1cccc2c1sc1c(C)cccc12 [4,6-dimethyldibenzo[b,d]thiophene] + CCCCCCCCCCCC
- refractive index ([2]; 298.2 K, w1 = 0.0037): 1.4201 ± 0.0006
- refractive index ([2]; 298.2 K, w1 = 0.0062): 1.4206 ± 0.0006
- refractive index ([2]; 298.2 K, w1 = 0.0089): 1.421 ± 0.0006
- refractive index ([2]; 313.2 K, w1 = 0.0037): 1.4137 ± 0.0006
- refractive index ([2]; 313.2 K, w1 = 0.0062): 1.4141 ± 0.0006
- refractive index ([2]; 313.2 K, w1 = 0.0089): 1.4146 ± 0.0006

SMILES: CCCCCCCCCCCC [dodecane]
- refractive index ([1]; 298.2 K): 1.4196 ± 0.0006
- refractive index ([1]; 313.2 K): 1.4131 ± 0.0006

SMILES: CCCCCCCCCCCC [dodecane] + Cc1cccc2c1sc1c(C)cccc12
- refractive index ([2]; 298.2 K, w2 = 0): 1.4196 ± 0.0006
- refractive index ([2]; 313.2 K, w2 = 0): 1.4131 ± 0.0006
